Data on eleven molecules can be found in US20240158446A1, “CYCLIC COMPOUND HAVING SELECTIVE INHIBITORY ACTION ON KRAS OVER HRAS AND NRAS” (CHUGAI SEIYAKU KABUSHIKI KAISHA, priority 2021, published 2024).

Assay [1] addresses GDP-bound HRAS wild-type protein (Homo sapiens, UniProt P01112). The assay is described as follows: Binding to HRAS by surface plasmon resonance (SPR), Single Cycle Kinetics. To be noted: ratio of KD for GDP-bound HRAS wild-type protein to KD for KRAS, SPR. (In general: SPR reads the build-up and loss of mass on a sensor chip optically.)
The test system of assay [2] is human lung cancer strain NCI-H441. The assay is described as follows: cells. To be noted: NCI-H441, 96 h, read-out: NCI-H441 IC50 (nM), NCI-H441 cell proliferation, 4 days, CellTiter-Glo. In general terms: In ATP-based viability assays light output follows the ATP content of the culture.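 Also: cell proliferation inhibition after four days measured by CellTiter-Glo.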
The target of assay [3] is GDP-bound NRAS wild-type protein (Homo sapiens, UniProt P01111). The assay is described as follows: Binding to NRAS by surface plasmon resonance (SPR), Single Cycle Kinetics. As to conditions: ratio of KD for GDP-bound NRAS wild-type protein to KD for KRAS, SPR.
GDP-bound NRAS wild-type protein, sequence (P01111 whole entry): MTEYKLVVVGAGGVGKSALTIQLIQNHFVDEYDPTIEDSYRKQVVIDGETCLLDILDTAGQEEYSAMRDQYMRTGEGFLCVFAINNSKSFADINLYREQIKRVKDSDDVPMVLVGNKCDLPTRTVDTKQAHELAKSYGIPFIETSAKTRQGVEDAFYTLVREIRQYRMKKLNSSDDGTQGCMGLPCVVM

GDP-bound HRAS wild-type protein, sequence (P01112 whole entry): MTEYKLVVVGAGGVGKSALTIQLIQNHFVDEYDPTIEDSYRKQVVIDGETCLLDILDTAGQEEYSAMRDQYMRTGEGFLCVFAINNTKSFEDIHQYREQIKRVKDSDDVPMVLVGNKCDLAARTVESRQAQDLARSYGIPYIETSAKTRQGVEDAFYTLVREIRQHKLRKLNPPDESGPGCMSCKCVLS

For the molecule `CCCN(C)C(=O)[C@@H]1CC(=O)N(C)[C@@H](CC(F)F)C(=O)N[C@@H]([C@@H](C)CC)C(=O)N(C)CC(=O)N(C)[C@H]2C/C=C\CCN(C2=O)[C@@H](Cc2ccc(C(F)(F)F)cc2)C(=O)N(C)CC(=O)N[C@@H](CCc2cc(F)c(C(F)(F)F)c(F)c2)C(=O)N2C[C@@H](C)C[C@H]2C(=O)NC2(CCC2)C(=O)N(C)[C@@H](C2CCCC2)C(=O)N1C` [PP2000], in assay [1], the “HRAS/KRAS (KD ratio)” value is “B (a compound having 3 or more and less than 10 is denoted as B)”. In addition, the IC50 in assay [2] amounted to 17.7 nM. In assay [3], the “NRAS/KRAS (KD ratio)” value was “A (a compound having 10 or more and less than 20 is denoted as A)”.

Consider `CCCN(C)C(=O)[C@@H]1CC(=O)N(C)[C@@H](CC)C(=O)N[C@@H]([C@@H](C)CC)C(=O)N(C)CC(=O)N(C)[C@H]2C/C=C\CCN(C2=O)[C@@H](Cc2ccc(C(F)(F)F)cc2)C(=O)N(C)CC(=O)N[C@@H](CCc2ccc(C(F)(F)F)c(OC)c2)C(=O)N2C[C@H](OCC)C[C@H]2C(=O)NC2(CC(C)(C)C2)C(=O)N(C)[C@@H](C2CCCC2)C(=O)N1C` [PP1654], for which the “HRAS/KRAS (KD ratio)” value in assay [1] was “A (a compound having 10 or more and less than 20 is denoted as A)”. Besides, in assay [2], the IC50 is 2.5 nM. In addition, the “NRAS/KRAS (KD ratio)” value in assay [3] was “A (a compound having 10 or more and less than 20 is denoted as A)”.

For `CCC[C@H]1C(=O)N[C@@H]([C@@H](C)CC)C(=O)N(C)CC(=O)N(C)[C@H]2C/C=C\CCN(C2=O)[C@@H](Cc2ccc(C)cc2)C(=O)N(C)CC(=O)N[C@@H](CCc2cc(F)c(C(F)(F)F)c(F)c2)C(=O)N2C[C@H](C)C[C@H]2C(=O)NC2(CCC2)C(=O)N(C)[C@@H](C2CCCC2)C(=O)N(C)[C@H](C(=O)N(C)CC)CC(=O)N1C` [PP1862], the “HRAS/KRAS (KD ratio)” value in assay [1] was “A (a compound having 10 or more and less than 20 is denoted as A)”. For the same molecule, in assay [2], the IC50 stood at 22.2 nM. For the same molecule, the “NRAS/KRAS (KD ratio)” value in assay [3] is “A (a compound having 10 or more and less than 20 is denoted as A)”.

As to `CCCOC[C@H]1C(=O)N[C@@H]([C@@H](C)CC)C(=O)N(C)CC(=O)N(C)[C@H]2C/C=C\CCN(C2=O)[C@@H](Cc2ccc(C(F)(F)F)cc2)C(=O)N(C)CC(=O)N[C@@H](CCc2ccc(C(F)(F)F)c(OC)c2)C(=O)N2C[C@@H](C)C[C@H]2C(=O)NC2(CCC2)C(=O)N(C)[C@@H](C2CCCC2)C(=O)N(C)[C@H](C(=O)N(C)CCC)CC(=O)N1C` [PP2028], the “HRAS/KRAS (KD ratio)” value in assay [1] is “B (a compound having 3 or more and less than 10 is denoted as B)”. Moreover, the IC50 in assay [2] amounted to 17.5 nM. Further, the “NRAS/KRAS (KD ratio)” value in assay [3] is “A (a compound having 10 or more and less than 20 is denoted as A)”.

`CC[C@H](C)[C@@H]1NC(=O)[C@H](CC)N(C)C(=O)C[C@@H](C(=O)N(C)C)N(C)C(=O)[C@H](C2CCCC2)N(C)C(=O)C2(CC(C)(C)C2)NC(=O)[C@@H]2C[C@@H](C)CN2C(=O)[C@H](CCc2ccc(C(F)(F)F)c(Cl)c2)NC(=O)CN(C)C(=O)[C@H](Cc2ccc(C)cc2)N2CC/C=C\C[C@@H](C2=O)N(C)C(=O)CN(C)C1=O` [PP1846]: the “HRAS/KRAS (KD ratio)” value in assay [1] was “B (a compound having 3 or more and less than 10 is denoted as B)”. For the same molecule, the IC50 in assay [2] was determined as 9.8 nM. Also, the “NRAS/KRAS (KD ratio)” value in assay [3] was “A (a compound having 10 or more and less than 20 is denoted as A)”.

As for `CCCN(C)C(=O)[C@@H]1CC(=O)N(C)[C@@H](CC(C)C)C(=O)N[C@@H]([C@@H](C)CC)C(=O)N(C)CC(=O)N(C)[C@H]2C/C=C\CCN(C2=O)[C@@H](Cc2ccc(C(F)(F)F)cc2)C(=O)N(C)CC(=O)N[C@@H](CCc2cc(F)c(C(F)(F)F)c(F)c2)C(=O)N2C[C@H](OCC)C[C@H]2C(=O)NC2(COC2)C(=O)N(C)[C@@H](C2CCCC2)C(=O)N1C` [PP1938], the “HRAS/KRAS (KD ratio)” value in assay [1] is “A (a compound having 10 or more and less than 20 is denoted as A)”. Moreover, the IC50 in assay [2] amounted to 34.6 nM. In addition, the “NRAS/KRAS (KD ratio)” value in assay [3] is recorded as “AA (a compound having 20 or more is denoted as AA)”.

As to `CCCN(C)C(=O)[C@@H]1CC(=O)N(C)[C@@H](CCOC)C(=O)N[C@@H]([C@@H](C)CC)C(=O)N(C)CC(=O)N(C)[C@H]2C/C=C\CCN(C2=O)[C@@H](Cc2ccc(C(F)(F)F)cc2)C(=O)N(C)CC(=O)N[C@@H](CCc2ccc(C(F)(F)F)c(OC)c2)C(=O)N2C[C@@H](C)C[C@H]2C(=O)NC2(CCC2)C(=O)N(C)[C@@H](C2CCCC2)C(=O)N1C` [PP2029], in assay [1], the “HRAS/KRAS (KD ratio)” value was “B (a compound having 3 or more and less than 10 is denoted as B)”. Further, the IC50 in assay [2] turned out to be 18.9 nM. For the same molecule, the “NRAS/KRAS (KD ratio)” value in assay [3] is “A (a compound having 10 or more and less than 20 is denoted as A)”.

In the case of `CCCOC[C@H]1C(=O)N[C@@H]([C@@H](C)CC)C(=O)N(C)CC(=O)N(C)[C@H]2C/C=C\CCN(C2=O)[C@@H](Cc2ccc(C(F)(F)F)cc2)C(=O)N(C)CC(=O)N[C@@H](CCc2ccc(C(F)(F)F)c(OC)c2)C(=O)N2C[C@H](OCC)C[C@H]2C(=O)NC2(CCC2)C(=O)N(C)[C@@H](C2CCCC2)C(=O)N(C)[C@H](C(=O)N(C)CCC)CC(=O)N1C` [PP2017], in assay [1], the “HRAS/KRAS (KD ratio)” value was “A (a compound having 10 or more and less than 20 is denoted as A)”. Besides, the IC50 in assay [2] was found to be 2.5 nM. Besides, in assay [3], the “NRAS/KRAS (KD ratio)” value was “A (a compound having 10 or more and less than 20 is denoted as A)”.

Consider `CCCN(C)C(=O)[C@@H]1CC(=O)N(C)[C@@H](COCC)C(=O)N[C@@H]([C@@H](C)CC)C(=O)N(C)CC(=O)N(C)[C@H]2C/C=C\CCN(C2=O)[C@@H](Cc2ccc(C(F)(F)F)cc2)C(=O)N(C)CC(=O)N[C@@H](CCc2ccc(C(F)(F)F)c(OC)c2)C(=O)N2C[C@@H](C)C[C@H]2C(=O)NC2(CCC2)C(=O)N(C)[C@@H](C2CCCC2)C(=O)N1C` [PP2025], for which the “HRAS/KRAS (KD ratio)” value in assay [1] is “B (a compound having 3 or more and less than 10 is denoted as B)”. Besides, in assay [2], the IC50 was 13.4 nM. Moreover, the “NRAS/KRAS (KD ratio)” value in assay [3] was “A (a compound having 10 or more and less than 20 is denoted as A)”.

Consider `CCCC[C@H]1C(=O)N[C@@H]([C@@H](C)CC)C(=O)N(C)CC(=O)N(C)[C@H]2C/C=C\CCN(C2=O)[C@@H](Cc2ccc(C(F)(F)F)cc2)C(=O)N(C)CC(=O)N[C@@H](CCc2cc(F)c(C(F)(F)F)c(F)c2)C(=O)N2C[C@H](F)C[C@H]2C(=O)NC2(CC(C)(C)C2)C(=O)N(C)[C@@H](C2CCCC2)C(=O)N(C)[C@H](C(=O)N(C)C)CC(=O)N1C` [PP1693], for which, in assay [1], the “HRAS/KRAS (KD ratio)” value is “A (a compound having 10 or more and less than 20 is denoted as A)”. Further, the IC50 in assay [2] was 1.1 nM. Besides, the “NRAS/KRAS (KD ratio)” value in assay [3] is on record as “AA (a compound having 20 or more is denoted as AA)”.

On to `CCCN1C(=O)C[C@@H](C(=O)N(C)C)N(C)C(=O)[C@H](C2CCCC2)N(C)C(=O)C2(CCC2)NC(=O)[C@@H]2C[C@@H](OCC)CN2C(=O)[C@H](CCc2cc(F)c(C(F)(F)F)c(F)c2)NC(=O)CN(C)C(=O)[C@H](Cc2ccc(C(F)(F)F)cc2)N2CC/C=C\C[C@@H](C2=O)N(C)C(=O)CN(C)C(=O)[C@H]([C@@H](C)CC)NC(=O)[C@@H]1CC(C)C` [PP1825], for which, in assay [1], the “HRAS/KRAS (KD ratio)” value was “A (a compound having 10 or more and less than 20 is denoted as A)”. The IC50 in assay [2] turned out to be 8 nM. For the same molecule, in assay [3], the “NRAS/KRAS (KD ratio)” value is “A (a compound having 10 or more and less than 20 is denoted as A)”.
